Data reported in the NIST ThermoML archive (doi:10.1021/je050367p).

Columns and labels:
[1] = xn = mol fraction of the nth substance listed; details: Liquid; for viscosity: Capillary tube (Ostwald / Ubbelohde) method
[2] = refractive index (Na D-line) (dimensionless); xn = mol fraction of the nth substance listed; details: 100.8 kPa, Liquid, Standard Abbe refractometry

CC(C)OC(C)C [diisopropyl ether] + CC(C)CC(C)(C)C
[1], 100.8 kPa
Details	mass density, 288.15 K [kg/m3]	mass density, 298.15 K [kg/m3]	mass density, 308.15 K [kg/m3]	viscosity, 288.15 K [mPa·s]	viscosity, 298.15 K [mPa·s]	viscosity, 308.15 K [mPa·s]
x1 = 0.05	697.2	688.86	680.44	0.523	0.468	0.422
x1 = 0.1	698.46	690.03	681.52	0.511	0.456	0.412
x1 = 0.15	699.73	691.23	682.62	0.498	0.445	0.402
x1 = 0.2	701.06	692.45	683.75	0.486	0.435	0.393
x1 = 0.25	702.44	693.75	684.95	0.474	0.425	0.384
x1 = 0.3	703.86	695.08	686.17	0.463	0.415	0.375
x1 = 0.35	705.33	696.43	687.42	0.452	0.406	0.367
x1 = 0.4	706.84	697.84	688.72	0.442	0.397	0.359
x1 = 0.45	708.37	699.26	690.03	0.432	0.388	0.351
x1 = 0.5	709.97	700.76	691.42	0.423	0.38	0.343
x1 = 0.55	711.64	702.32	692.86	0.414	0.372	0.336
x1 = 0.6	713.36	703.94	694.35	0.405	0.364	0.329
x1 = 0.65	715.15	705.61	695.92	0.397	0.357	0.323
x1 = 0.7	716.97	707.32	697.5	0.389	0.35	0.316
x1 = 0.75	718.85	709.08	699.14	0.382	0.343	0.31
x1 = 0.8	720.8	710.9	700.83	0.375	0.337	0.305
x1 = 0.85	722.8	712.78	702.59	0.368	0.33	0.299
x1 = 0.9	724.9	714.75	704.42	0.361	0.325	0.294
x1 = 0.9499	727	716.73	706.28	0.354	0.319	0.288
x1 = 1	729.09	718.7	708.12	0.348	0.313	0.283

refractive index, [2]
Details	288.15 K	298.15 K	308.15 K
x1 = 0.05	1.39293	1.38786	1.38277
x1 = 0.1	1.39183	1.38672	1.38159
x1 = 0.15	1.39072	1.38557	1.38042
x1 = 0.2	1.3896	1.38443	1.37924
x1 = 0.25	1.38846	1.38326	1.37803
x1 = 0.3	1.38733	1.38209	1.37682
x1 = 0.35	1.38619	1.38092	1.37561
x1 = 0.4	1.38504	1.37974	1.3744
x1 = 0.45	1.3839	1.37856	1.37317
x1 = 0.5	1.38274	1.37737	1.37195
x1 = 0.55	1.38158	1.37618	1.37072
x1 = 0.6	1.38042	1.37499	1.36949
x1 = 0.65	1.37926	1.3738	1.36826
x1 = 0.7	1.37809	1.37259	1.36703
x1 = 0.75	1.37691	1.37138	1.36578
x1 = 0.8	1.37573	1.37016	1.36452
x1 = 0.85	1.37456	1.36896	1.36327
x1 = 0.9	1.37337	1.36774	1.36201
x1 = 0.9499	1.37217	1.3665	1.36073
x1 = 1	1.37093	1.36524	1.35944

CC(C)OC(C)C [diisopropyl ether] + CCO
[1], 100.5 kPa
Details	mass density, 288.15 K [kg/m3]	mass density, 298.15 K [kg/m3]	mass density, 308.15 K [kg/m3]	viscosity, 288.15 K [mPa·s]	viscosity, 298.15 K [mPa·s]	viscosity, 308.15 K [mPa·s]
x1 = 0.05	788.65	779.96	771.13	1.176	0.975	0.814
x1 = 0.1	783.6	774.78	765.84	1.046	0.875	0.736
x1 = 0.15	779.02	770.05	760.98	0.946	0.793	0.67
x1 = 0.2	774.89	765.79	756.58	0.85	0.719	0.612
x1 = 0.25	770.69	761.45	752.16	0.771	0.656	0.562
x1 = 0.3	766.92	757.63	748.12	0.705	0.603	0.52
x1 = 0.35	763.36	753.93	744.32	0.648	0.558	0.484
x1 = 0.4	760.02	750.47	740.76	0.599	0.519	0.453
x1 = 0.45	756.93	747.28	737.5	0.558	0.486	0.426
x1 = 0.5	753.87	744.13	734.3	0.523	0.458	0.403
x1 = 0.55	750.98	741.18	731.25	0.493	0.432	0.383
x1 = 0.6	748.29	738.39	728.37	0.468	0.412	0.365
x1 = 0.65	745.73	735.73	725.59	0.444	0.392	0.35
x1 = 0.7	743.19	733.1	722.86	0.423	0.376	0.336
x1 = 0.7499	740.73	730.59	720.23	0.407	0.362	0.324
x1 = 0.8	738.4	728.19	717.79	0.392	0.35	0.314
x1 = 0.85	735.94	725.76	715.31	0.378	0.339	0.305
x1 = 0.9	733.6	723.36	712.89	0.367	0.329	0.297
x1 = 0.95	731.15	720.98	710.53	0.357	0.32	0.289
x1 = 1	729.09	718.7	708.12	0.348	0.313	0.283

refractive index, [2]
Details	288.15 K	298.15 K	308.15 K
x1 = 0.05	1.36501	1.36077	1.35646
x1 = 0.1	1.36653	1.3621	1.35763
x1 = 0.15	1.36768	1.3631	1.3585
x1 = 0.2	1.3686	1.36392	1.35923
x1 = 0.25	1.36935	1.36456	1.35977
x1 = 0.3	1.36998	1.3651	1.36021
x1 = 0.35	1.37047	1.3655	1.36052
x1 = 0.4	1.37086	1.36582	1.36077
x1 = 0.45	1.37117	1.36608	1.36093
x1 = 0.5	1.3714	1.3663	1.36103
x1 = 0.55	1.37159	1.36642	1.36107
x1 = 0.6	1.37174	1.36648	1.36109
x1 = 0.65	1.37183	1.36649	1.36108
x1 = 0.7	1.37187	1.36646	1.36098
x1 = 0.7499	1.37187	1.36638	1.36085
x1 = 0.8	1.37181	1.36627	1.36068
x1 = 0.85	1.37167	1.36611	1.36044
x1 = 0.9	1.3715	1.36588	1.36019
x1 = 0.95	1.3712	1.36558	1.35986
x1 = 1	1.37093	1.36524	1.35944
